We go through two compounds from patent publication US12522827B2 (priority 2021, dated 2026).

In one assay the test system is PR8. The assay is described as follows: microbe, parasite or virus in culture. The format is cell-based, Influenza A/PR/8/34 (PR8) H1N1 virus.
The subject of assay [1] is A/WSN/33 (H1N1) virus with NA H274Y resistance mutation. The format is cell-based, Influenza A/WSN/33 (H1N1).

Read-outs that look alike come from different tables or passages of the source.

`CCOC(=O)C1=C[C@@H](OC(CC)CC)[C@H](NC(C)=O)[C@@H](N)C1` [Oseltamivir]: the “increase of IC50” value in the assay with PR8 was 1000 fold. Moreover, the IC50 (commonly the concentration needed to halve the response being measured) in the assay with PR8 (Influenza A virus, PR8, read-out: IC50 after serial passages) worked out at 50000 nM; in the assay with PR8 (Influenza A virus, PR8, read-out: starting IC50), 41 nM; in assay [1] it was 53000 nM.
For TACTtactgacaGCC [LNA9], the IC50 in the assay with PR8 (read-out: IC50 after serial passages) worked out at 0.016 nM; with PR8 (read-out: IC50 at start of passaging), 0.018 nM. In assay [1], the potency and efficacy result is given as “picomolar activity”.
